Experimental data published in paper PMC10298982, “Stability Characterization of the Novel Anti-Cancer HM-10/10 HDL-Mimetic Peptide” (International Journal of Molecular Sciences, 2023).
Like-named read-outs stand apart in the source and are kept apart here. Ends that are not written are not given here.

Tests used:
CYP1A2 = CYP1A2 induction (enzyme activity) in single-donor human hepatocytes; type: in vitro ADME; conditions: for Fold Increase (Enzyme Activity) Mean: mean of three lots
Protocol: (§1) The transport medium was replaced with 200 μL of warm (37 °C) incubation medium (InVitroGRO HI, BioIVT Catalog No. Z99009) and the plate was placed in a humidified 5% carbon dioxide incubator at 37 °C for 24 h.
(§2) In addition, test article vehicle (PBS) was added to warm (37°C) InVitroGRO HI Medium in a 5:95 (v:v) ratio. […] The plates were removed from the incubator and the hepatocytes were prepared for the induction assay by replacing the cell culture medium with medium containing either the test article, a control inducer, or vehicle control (200 µL per well). The hepatocyte plates were returned to the cell culture incubator and incubated for 24 h.
(§3) On Day 3, induction was repeated following the same steps as described above for the previous day, and plates were returned to the cell culture incubator for an additional 24 h.
(§4) After aliquots were taken to measure test article stability, all the remaining medium from each well in the hepatocyte plate was removed, all wells were washed once using 200 μL of blank assay buffer, and then 100 μL of the 1000-fold diluted substrate solutions were added to the appropriate wells. The assay plate was returned to the humidified 5% carbon dioxide incubator at 37 °C for 1 h incubation.
(§5) At the end of the incubation time, 100 μL of mRNA lysis buffer was added to each well to stop the reaction. Fifty microliters of this reaction mixture were transferred into a new plate and quenched with 200 μL of ice-cold acetonitrile containing a CYP-specific stable labeled internal standard (250 ng/mL acetaminophen-d4, 250 ng/mL hydroxybupropion-d6, or 250 ng/mL hydroxytestosterone-d3). After removal of the aliquots from the plate for enzyme activity determination, the assay plates were sealed and stored in a −70 °C freezer until use for RT-PCR, mRNA analysis.
(§6) For the induction assay samples, an aliquot (50 µL) of the supernatant was transferred to a new plate and diluted with 100 µL Milli-Q water. For the test article stability samples, an aliquot (50 µL) of the supernatant was transferred to a new plate and diluted with 60 µL 0.1% formic acid in Milli-Q water. These samples for the enzyme activity assay and article stability test were refrigerated for storage until analysis. […]
(§7) HM1010: Induction Potential of Cytochrome P450 Enzymes
(§8) (CYP1A2, CYP2B6 and CYP3A4) Using Human Cryopreserved Hepatocytes
(§9) Testing Facility Study No.
(§10) The purpose of this in-vitro study was to determine the induction potential of HM1010 on human
(§11) cytochrome P450 (CYP) isoenzyme (1A2, 2B6 and 3A4) activity. The study design is
(§12) Matrix: Inducible cryopreserved human hepatocytes three single-donor lots
(§13) Assay Buffer: InVitroGRO KHB
(§14) Substrates: Phenacetin (1A2), Bu propion (2B6), and Testosterone (3A4)
(§15) Assay conditions: 48 hours at 37°C in humidified 5% carbon dioxide incubator
(§16) Analysis: LC-MS/MS (enzyme activity) and mRNA analysis

[1] = Stability in potassium phosphate buffers of pH 1.3, 5.5 and 7.4; type: physicochemical; conditions: potassium phosphate buffer; for remaining at 1 h, 2 µM: read-out: % Remaining at 60 min
Protocol: The stability of HM-10/10 under varying pH conditions was determined by adding the compound to potassium phosphate buffers of pH 1.3 (acidic), 5.5 (slightly acidic), and 7.4 (physiological pH), with 7-Ethoxycoumarin used as a control article. Under acidic and slightly acidic conditions, the half-life of HM-10/10 could not be determined, as the percentage of HM-10/10 was higher at the end of the time course than at the beginning (Table 3, Figure 3). […] Samples were tested at 2 µM.
The instrument was equipped with an electrospray ionization source (600 °C) operated in the positive-ion mode.

CYP2B6 [2] = target: T1, CYP2B6 (Homo sapiens, UniProt P20813); conditions: microsomes
T1 sequence (P20813 1-491): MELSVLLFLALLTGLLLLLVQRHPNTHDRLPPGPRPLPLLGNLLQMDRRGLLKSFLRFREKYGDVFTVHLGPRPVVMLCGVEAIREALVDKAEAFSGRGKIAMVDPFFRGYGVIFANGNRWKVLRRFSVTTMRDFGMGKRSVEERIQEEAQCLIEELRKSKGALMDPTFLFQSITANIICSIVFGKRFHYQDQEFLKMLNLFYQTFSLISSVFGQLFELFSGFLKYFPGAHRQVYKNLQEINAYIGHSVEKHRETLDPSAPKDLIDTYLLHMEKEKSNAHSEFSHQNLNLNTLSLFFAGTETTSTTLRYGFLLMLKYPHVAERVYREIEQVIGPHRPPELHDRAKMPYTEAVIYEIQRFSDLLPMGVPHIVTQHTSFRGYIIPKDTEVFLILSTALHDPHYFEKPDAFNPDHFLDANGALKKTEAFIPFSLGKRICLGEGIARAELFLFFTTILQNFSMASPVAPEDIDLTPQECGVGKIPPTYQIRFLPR

in vitro = conditions: CD-1, mouse, plasma, pH 7.4
Protocol: Samples were tested at 2 μM.
The supernatant was removed and incubated at 37 °C for at least 10 min before use. The pH of each matrix was checked and adjusted to pH 7.4 using 10% phosphoric acid or 1 N sodium hydroxide as necessary.
Test and control article stock solutions were spiked (1.5 µL) into matrix (0.749 mL) to a final assay concentration of 2 µM and mixed. […] These tubes were sealed and incubated at 37 °C with shaking.
The quenched samples were mixed briefly by vortexing and stored in a −20 °C freezer.
Sample plates were stored refrigerated until analysis.
The column was set to a temperature of 55 °C. […] The instrument was equipped with an electrospray ionization source (500 °C) operated in positive-ion mode.
Peak area ratios for IS-normalized test article and control article counts were used to calculate the percent remaining relative to the time zero (T0) value. As appropriate, results were plotted and further analyzed to calculate half-life (T1/2) values.
Mean peak ratios were used to calculate the percent remaining relative to the T0 value: % Remaining at Timex = (mean peak area ratio Tx/mean peak ratio T0) × 100.

CYP2B6 [3] = assay: CYP2B6 induction (enzyme activity) in single-donor human hepatocytes; conditions: for Fold Increase (Enzyme Activity) Mean: mean of three lots
Protocol: as §1, §2, §3, §4, §5, §6, §7, §8, §9, §10, §11, §12, §13, §14, §15, §16

Sequence: LRKLRKRLLRLVGRQLEEFL [HM-10/10, LRKLRKRLLRLVGRQLEEFL]
- Fold Increase (Enzyme Activity) Lot HH1086 (CYP1A2; 2 µM): 0.682 fold
- Fold Increase (Enzyme Activity) Lot HH1142 (CYP1A2; 2 µM): 1.33 fold
- Fold Increase (Enzyme Activity) Lot HH1144 (CYP1A2; 2 µM): 1.73 fold
- Fold Increase (Enzyme Activity) Mean (CYP1A2; 2 µM): 1.25 fold
- Fold Increase (Enzyme Activity) Lot HH1086 (CYP1A2; 10 µM): 1.88 fold
- Fold Increase (Enzyme Activity) Lot HH1142 (CYP1A2; 10 µM): 5.19 fold
- Fold Increase (Enzyme Activity) Lot HH1144 (CYP1A2; 10 µM): 3.32 fold
- Fold Increase (Enzyme Activity) Mean (CYP1A2; 10 µM): 3.46 fold
- Fold Increase (Enzyme Activity) Lot HH1086 (CYP1A2; 25 µM): 2.46 fold
- Fold Increase (Enzyme Activity) Lot HH1142 (CYP1A2; 25 µM): 5.98 fold
- Fold Increase (Enzyme Activity) Lot HH1144 (CYP1A2; 25 µM): 3.65 fold
- Fold Increase (Enzyme Activity) Mean (CYP1A2; 25 µM): 4.03 fold
- half-life at 2 µM ([1]; Acidic (pH 1.3)): > 2 h
- remaining at 1 h, 2 µM ([1]; Acidic (pH 1.3)): 156%
- half-life at 2 µM ([1]; Physiological pH (pH 7.4)): 7.22 h
- remaining at 1 h, 2 µM ([1]; Physiological pH (pH 7.4)): 81.4%
- half-life at 2 µM ([1]; Slightly Acidic (pH 5.5)): > 2 h
- remaining at 1 h, 2 µM ([1]; Slightly Acidic (pH 5.5)): 136%
- % Inhibition at 50 µM No PI + NADPH (CYP2B6 [2]): 17.3%
- % Inhibition at 50 µM No PI − NADPH (CYP2B6 [2]): 25.2%
- % Inhibition at 50 µM PI + NADPH (CYP2B6 [2]): 28.4%
- % Inhibition at 50 µM PI − NADPH (CYP2B6 [2]): 42.2%
- half-life at 2 µM (in vitro): 5.68 min
- remaining at 2 h, 2 µM (in vitro): 23.9%
- Fold Increase (Enzyme Activity) Lot HH1086 (CYP2B6 [3]; 2 µM): 3.18 fold
- Fold Increase (Enzyme Activity) Lot HH1142 (CYP2B6 [3]; 2 µM): 2.82 fold
- Fold Increase (Enzyme Activity) Lot HH1144 (CYP2B6 [3]; 2 µM): 3.00 fold
- Fold Increase (Enzyme Activity) Mean (CYP2B6 [3]; 2 µM): 3.00 fold
- Fold Increase (Enzyme Activity) Lot HH1086 (CYP2B6 [3]; 10 µM): 4.01 fold
- Fold Increase (Enzyme Activity) Lot HH1142 (CYP2B6 [3]; 10 µM): 6.36 fold
- Fold Increase (Enzyme Activity) Lot HH1144 (CYP2B6 [3]; 10 µM): 4.52 fold
- Fold Increase (Enzyme Activity) Mean (CYP2B6 [3]; 10 µM): 4.96 fold
- Fold Increase (Enzyme Activity) Lot HH1086 (CYP2B6 [3]; 25 µM): 2.80 fold
- Fold Increase (Enzyme Activity) Lot HH1142 (CYP2B6 [3]; 25 µM): 9.29 fold
- Fold Increase (Enzyme Activity) Lot HH1144 (CYP2B6 [3]; 25 µM): 6.73 fold
- Fold Increase (Enzyme Activity) Mean (CYP2B6 [3]; 25 µM): 6.27 fold
